Data: BindingDB's records for doi:10.1021/jm00397a017 (Beijing Medical University, 1988)

Target: T1, Dihydrofolate reductase (Escherichia coli (strain K12), UniProt P0ABQ4)
T1 sequence (P0ABQ4 whole entry): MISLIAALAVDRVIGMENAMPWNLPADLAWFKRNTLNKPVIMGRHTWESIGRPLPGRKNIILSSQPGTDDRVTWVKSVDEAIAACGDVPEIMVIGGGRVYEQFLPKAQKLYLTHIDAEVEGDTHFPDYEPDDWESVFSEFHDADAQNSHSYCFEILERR
Experiment: ChEBML_54731
Excerpt: Apparent inhibitory (log 1/Ki) activity against Escherichia coli dihydrofolate reductase

Ki [nM] | SMILES
0.562 | COCCOc1ccc(Cc2cnc(N)nc2N)cc1OC
0.0977 | COc1ccc(Cc2cnc(N)nc2N)cc1OCc1ccccc1 [5-(3-Benzyloxy-4-methoxy-benzyl)-pyrimidine-2,4-diamine]
1.7 | Nc1ncc(Cc2cc(OCc3ccccc3)cc(OCc3ccccc3)c2)c(N)n1
1.1 | CCCCOc1cc(Cc2cnc(N)nc2N)cc(Br)c1OC
1.6 | CCCOc1cc(Cc2cnc(N)nc2N)cc(OCCC)c1
1.1 | COc1ccc(Cc2cnc(N)nc2N)cc1OS(C)(=O)=O
0.891 | COc1cc(Cc2cnc(N)nc2N)ccc1O
0.372 | COc1cc(Cc2cnc(N)nc2N)ccc1OCc1ccccc1 [5-(4-(benzyloxy)-3-methoxybenzyl)pyrimidine-2,4-diamine]
3.2 | CCCOc1cc(Cc2cnc(N)nc2N)cc(OCC)c1
8.9 | Cc1cc(C)cc(Cc2cnc(N)nc2N)c1
0.977 | CCCCOc1ccc(Cc2cnc(N)nc2N)cc1OC
2 | Nc1ncc(Cc2ccc(OCc3ccccc3)cc2)c(N)n1 [5-(4-(benzyloxy)benzyl)pyrimidine-2,4-diamine]
7.1 | CS(=O)(=O)Oc1ccc(Cc2cnc(N)nc2N)cc1
1.8 | COCCOc1cc(Cc2cnc(N)nc2N)ccc1OC
0.776 | CCOc1cc(Cc2cnc(N)nc2N)cc(OCC)c1
1.1 | CCCOc1cc(Cc2cnc(N)nc2N)cc(Br)c1OC
